Experimental data reported in article PMC5698418 (Nature Communications, 2017).
“And” between values parts separate entries of the source, which are not always exact repeats. Equal entries are not always repeated. Structures can show the parent of a compound that is named as a salt. Where two headings read alike, the source gives them in different places.

Tested on: BDNF-induced nuclear Arc expression in primary cortical neurons
Experiment: Chemogenomic screen: high-content image-based assay of BDNF-induced nuclear Arc expression (96-well)
Format: cell-based, mouse
Method in brief: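 DIV13 mouse primary cortical neurons (30,000 cells/well) are treated with compound at 16.7 µM and BDNF, in three biological replicates. Arc and acetyl-H3K9 are immunostained and imaged at ×40, and nuclear Arc signal is quantified automatically using acetyl-H3K9 as the nuclear mask.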

[1] = chemogenomic (SMART) screen, BDNF-induced nuclear Arc expression, primary cortical neurons, BDNF control 19.5
[2] = nuclear Arc-positive cells relative to DMSO + BDNF control, negative values = decrease
[3] = BDNF-induced nuclear Arc expression, primary cortical neurons, chemogenomic screen

Structure (SMILES) | Percentage of cell with nuclear Arc immunostaining above 2σ threshold [1] [%] | Fold-change — Normalized to DMSO control (BDNF) [2] | also measured
CN1C(=O)CC(c2ccccc2)C1=O (stereo not shown) [Phensuximide] | 24.8 | 1.3 fold | 
CNC(=O)Oc1ccc2c(c1)[C@]1(C)CCN(C)[C@@H]1N2C [Physostigmine] |  |  | Percentage of cell with nuclear Arc immunostaining above 2σ threshold: 18.3%
O=C([O-])CCCNC(=O)c1cccnc1.[Na+] [Picamilon sodium salt] | 29.2 | 1.5 fold | 
O=C(O)CCCNC(=O)c1cccnc1 [Pikamilone] | 38.6 | 2.0 fold | 
O=c1[nH]c2ccccc2n1C1CCN(CCCC(c2ccc(F)cc2)c2ccc(F)cc2)CC1 [Pimozide] |  |  | Percentage of cell with nuclear Arc immunostaining above 2σ threshold [3]: 1.1%
CCc1ccc(CCOc2ccc(CC3SC(=O)NC3=O)cc2)nc1 (stereo not shown) [Pioglitazone] | 15.4 |  | 
O=C(/C=C/C=C/c1ccc2c(c1)OCO2)N1CCCCC1 [Piperine] | 18.5 |  | 
CC(C)CNC(=O)/C=C/C=C/c1ccc2c(c1)OCO2 [Piperlonguminine] | 23.0 | 1.2 fold | 
NC(=O)CN1CCCC1=O [Piracetam] |  |  | Percentage of cell with nuclear Arc immunostaining above 2σ threshold [3]: 10.5%
Cc1ccc2c(c1)c1c3n2CCNC3CCC1 (stereo not shown) [Pirlindole] | 15.3 |  | 
CCCN[C@H]1CCc2nc(N)sc2C1 [Pramipexole] | 14.5 |  | 
CC(C)C[C@H](CN)CC(=O)O [Pregabalin] |  |  | Percentage of cell with nuclear Arc immunostaining above 2σ threshold: 8.5%
CC(=O)[C@H]1CC[C@H]2[C@@H]3CC=C4C[C@@H](O)CC[C@]4(C)[C@H]3CC[C@]12C [Pregnenolone] | 24.4 | 1.2 fold | 
CCC1(c2ccccc2)C(=O)NCNC1=O [Primidone] | 17.3 |  | 
CCN(CC)CCOC(=O)c1ccc(N)cc1 [Procaine hydrochloride] | 37.1 | 1.9 fold | 
CN1CCN(CCCN2c3ccccc3Sc3ccc(Cl)cc32)CC1 [Prochlorperazine] |  |  | Percentage of cell with nuclear Arc immunostaining above 2σ threshold [3]: 0.375%
OC(CCN1CCCC1)(c1ccccc1)C1CCCCC1 (stereo not shown) [Procyclidine hydrochloride] | 19.3 |  | 
NC(=O)CCC/N=C(\c1ccc(Cl)cc1)c1cc(F)ccc1O [Progabide] | 19.5 | 1.0 fold | 
CN(C)CCCN1c2ccccc2Sc2ccccc21 [Promazine] |  |  | Percentage of cell with nuclear Arc immunostaining above 2σ threshold [3]: 9.7%
CCCn1cnc2c1c(=O)n(CCCCC(C)=O)c(=O)n2C [Propentofylline] | 33.4 | 1.7 fold | 

Structure (SMILES) | Percentage of cell with nuclear Arc immunostaining above 2σ threshold [1] [%] | Fold-change — Normalized to DMSO control (BDNF) [2] | also measured
COc1ccc(CN(CCN(C)C)c2ccccn2)cc1 [Pyrilamine maleate] | 25.2 | 1.3 fold | 
Cc1ncc(CSSCc2cnc(C)c(O)c2CO)c(CO)c1O [Pyrithioxine] | 21.3 | 1.1 fold | 
OCCOCCN1CCN(C2=Nc3ccccc3Sc3ccccc32)CC1 [Quetiapine fumarate] | 25.9 | 1.3 fold | 
O=C(O)C(Cc1c[nH]c2ccccc12)N1C(=O)c2ccccc2C1=O (stereo not shown) [RG-108] |  | 1.8 fold and 1.4 fold | Percentage of cell with nuclear Arc immunostaining above 2σ threshold: 35.1% and 27.5%
C#CCN[C@@H]1CCc2ccccc21 [Rasagiline] | 14.8 |  | 
CCOc1ccccc1OC(c1ccccc1)C1CNCCO1 (stereo not shown) [Reboxetine] |  |  | Percentage of cell with nuclear Arc immunostaining above 2σ threshold: 8.6%
CCN1CCC[C@H]1CNC(=O)c1c(OC)ccc(Br)c1OC [Remoxipride] | 35.4 | 1.8 fold | 
CCOc1cc(CC(=O)N[C@@H](CC(C)C)c2ccccc2N2CCCCC2)ccc1C(=O)O [Repaglinide] | 19.5 | 1.0 fold | 
Oc1ccc(/C=C/c2cc(O)cc(O)c2)cc1 [Resveratrol] | 36.0 | 1.8 fold | 
CCOC(=O)Nc1ccc(NCc2ccc(F)cc2)cc1N [Retigabine] |  |  | Fold-change — Normalized to DMSO control (BDNF): 1.7 fold; Percentage of cell with nuclear Arc immunostaining above 2σ threshold: 32.9%
Cc1nc2n(c(=O)c1CCN1CCC(c3noc4cc(F)ccc34)CC1)CCCC2 [Risperidone] |  |  | Percentage of cell with nuclear Arc immunostaining above 2σ threshold: 6.3%
CCN(C)C(=O)Oc1cccc([C@H](C)N(C)C)c1 [Rivastigmine] |  | 1.7 fold | Percentage of cell with nuclear Arc immunostaining above 2σ threshold: 33.7%
COc1ccc(C2CNC(=O)C2)cc1OC1CCCC1 (stereo not shown) [Rolipram] | 21.4 | 1.1 fold | 
CCCN(CCC)CCc1cccc2c1CC(=O)N2 [Ropinirole] | 14.2 |  | 
CC[C@H](CO)Nc1nc(NCc2ccccc2)c2ncn(C(C)C)c2n1 [Roscovitine] |  |  | Fold-change — Normalized to DMSO control (BDNF): 1.3 fold; Percentage of cell with nuclear Arc immunostaining above 2σ threshold: 24.9%
CN(CCOc1ccc(CC2SC(=O)NC2=O)cc1)c1ccccn1 (stereo not shown) [Rosiglitazone] | 29.8 | 1.5 fold | 
COc1cc2c(cc1OC)[C@@H]1Cc3ccc(OC)c(OC)c3CN1CC2 [Rotundine] | 28.7 | 1.5 fold | 
NC(=O)c1cn(Cc2c(F)cccc2F)nn1 [Rufinamide] | 20.3 | 1.0 fold | 
C[S+](CC[C@H](N)C(=O)[O-])C[C@H]1O[C@@H](n2cnc3c(N)ncnc32)[C@H](O)[C@@H]1O (stereo partly shown) [S-Adenosylmethionine] | 12.8 |  | 
Cl.O=C(O)C1CCCN(CCC=C(c2ccccc2)c2ccccc2)C1 (stereo not shown) [SKF 89976A hydrochloride] |  | 1.1 fold | Percentage of cell with nuclear Arc immunostaining above 2σ threshold: 21.6%

Structure (SMILES) | Percentage of cell with nuclear Arc immunostaining above 2σ threshold [1] [%] | Fold-change — Normalized to DMSO control (BDNF) [2] | also measured
C[C@H](NCc1ccc(OCc2cccc(F)c2)cc1)C(N)=O [Safinamide] | 25.5 | 1.3 fold | 
OC[C@H]1O[C@@H](OCCc2ccc(O)cc2)[C@H](O)[C@@H](O)[C@@H]1O [Salidroside] | 30.7 | 1.6 fold | 
C[C@H](O)[C@H](O)[C@H]1CNc2nc(N)[nH]c(=O)c2N1 [Sapropterin] | 49.8 | 2.6 fold | 
OCCCCC#Cc1cncc(OC[C@@H]2CCN2)c1 [Sazetidine A] |  | 1.8 fold | Percentage of cell with nuclear Arc immunostaining above 2σ threshold: 35.2%
C#CCN(C)[C@H](C)Cc1ccccc1 [Selegiline] |  | 1.5 fold | Percentage of cell with nuclear Arc immunostaining above 2σ threshold: 29.8%
O=C1NCCN1CCN1CCC(c2cn(-c3ccc(F)cc3)c3ccc(Cl)cc23)CC1 [Sertindole] |  |  | Percentage of cell with nuclear Arc immunostaining above 2σ threshold [3]: 0.18%
CN[C@H]1CC[C@@H](c2ccc(Cl)c(Cl)c2)c2ccccc21 [Sertraline] |  |  | Percentage of cell with nuclear Arc immunostaining above 2σ threshold [3]: 0.0%
CC(C)CC(N(C)C)C1(c2ccc(Cl)cc2)CCC1 (stereo not shown) [Sibutramine] |  | 1.1 fold | Percentage of cell with nuclear Arc immunostaining above 2σ threshold: 21.3%
O=c1c(O)c(-c2ccc(O)c(O)c2)oc2cc(O)cc(O)c12 [Sophoretin] |  |  | Percentage of cell with nuclear Arc immunostaining above 2σ threshold [3]: 9.3%
C1CCN2C[C@@H]3C[C@@H](CN4CCCC[C@@H]34)[C@H]2C1 [Sparteine] |  | 1.3 fold | Percentage of cell with nuclear Arc immunostaining above 2σ threshold: 25.6%
O=C(CCCN1CCC2(CC1)C(=O)NCN2c1ccccc1)c1ccc(F)cc1 [Spiperone] | 23.6 | 1.2 fold | 
C[S+]([O-])CCCCN=C=S (stereo not shown) [Sulforaphane] | 18.2 |  | 
CCN1CCCC1CNC(=O)c1cc(S(N)(=O)=O)ccc1OC (stereo not shown) [Sulpiride] | 26.5 | 1.4 fold | 
CN[C@@H]1Cc2cccc3[nH]c(=O)n(c23)C1 [Sumanirole] | 40.3 | 2.1 fold | 
CNS(=O)(=O)Cc1ccc2[nH]cc(CCN(C)C)c2c1 [Sumatriptan succinate] | 23.4 | 1.2 fold | 
CNCC(O)c1ccc(O)cc1 (stereo not shown) [Synephrine] | 27.8 | 1.4 fold | 
Cn1sc(=O)n(Cc2ccccc2)c1=O [TDZD-8] |  |  | Percentage of cell with nuclear Arc immunostaining above 2σ threshold [3]: 1.7%; Fold-change — Normalized to DMSO control (BDNF) (nuclear Arc-positive cells relative to DMSO control (BDNF), negative = decrease): -11.7 fold
Nc1cccc(-c2cc3c(Oc4cccc(O)c4)ncnc3[nH]2)c1 [TWS119] | 33.9 | 1.7 fold | 
CNC(=O)[C@@H](Cc1ccccc1)N(C)C(=O)[C@@H](Cc1ccc2ccccc2c1)N(C)C(=O)/C=C/CC(C)(C)N [Tabimorelin] |  |  | Percentage of cell with nuclear Arc immunostaining above 2σ threshold [3]: 7.1%
Nc1c2c(nc3ccccc13)CCCC2 [Tacrine] |  |  | Percentage of cell with nuclear Arc immunostaining above 2σ threshold [3]: 8.3%
